Assay [1] addresses Ba/F3 ERBB2 YVMA (Homo sapiens, UniProt P04626, DUP772-775, cells depend on it). Nature of the assay: Cell viability assay (CellTiter Glo), Ba/F3 cells engineered to express ERBB2 YVMA. The conditions noted are these: Ba/F3 cells expressing human ERBB2 YVMA mutant, 72 hours, read-out: Ba/F3 ERBB2 YVMA, IC50. The assay is classed as cell-based, mouse. The essentials:
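Ba/F3 cells (IL-3-independent via stable retroviral human ERBB2 YVMA) seeded 3000/well and given compound from about 10 μM to 0.51 nM in three-fold steps, DMSO ≤0.1%, 72 h at 37° C. Viability by CellTiter Glo luminescence, normalized to DMSO and media-only controls. Sigmoidal nonlinear fit.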
For orientation: ATP-based viability assays read luminescence as a measure of living cells.

Assay [2] deals with T1, phosphorylated ERBB2 (pERBB2) (Homo sapiens, UniProt P04626).
T1 construct: endogenous in cells; host or cells: BT-474
T1 sequence (P04626 23-1255): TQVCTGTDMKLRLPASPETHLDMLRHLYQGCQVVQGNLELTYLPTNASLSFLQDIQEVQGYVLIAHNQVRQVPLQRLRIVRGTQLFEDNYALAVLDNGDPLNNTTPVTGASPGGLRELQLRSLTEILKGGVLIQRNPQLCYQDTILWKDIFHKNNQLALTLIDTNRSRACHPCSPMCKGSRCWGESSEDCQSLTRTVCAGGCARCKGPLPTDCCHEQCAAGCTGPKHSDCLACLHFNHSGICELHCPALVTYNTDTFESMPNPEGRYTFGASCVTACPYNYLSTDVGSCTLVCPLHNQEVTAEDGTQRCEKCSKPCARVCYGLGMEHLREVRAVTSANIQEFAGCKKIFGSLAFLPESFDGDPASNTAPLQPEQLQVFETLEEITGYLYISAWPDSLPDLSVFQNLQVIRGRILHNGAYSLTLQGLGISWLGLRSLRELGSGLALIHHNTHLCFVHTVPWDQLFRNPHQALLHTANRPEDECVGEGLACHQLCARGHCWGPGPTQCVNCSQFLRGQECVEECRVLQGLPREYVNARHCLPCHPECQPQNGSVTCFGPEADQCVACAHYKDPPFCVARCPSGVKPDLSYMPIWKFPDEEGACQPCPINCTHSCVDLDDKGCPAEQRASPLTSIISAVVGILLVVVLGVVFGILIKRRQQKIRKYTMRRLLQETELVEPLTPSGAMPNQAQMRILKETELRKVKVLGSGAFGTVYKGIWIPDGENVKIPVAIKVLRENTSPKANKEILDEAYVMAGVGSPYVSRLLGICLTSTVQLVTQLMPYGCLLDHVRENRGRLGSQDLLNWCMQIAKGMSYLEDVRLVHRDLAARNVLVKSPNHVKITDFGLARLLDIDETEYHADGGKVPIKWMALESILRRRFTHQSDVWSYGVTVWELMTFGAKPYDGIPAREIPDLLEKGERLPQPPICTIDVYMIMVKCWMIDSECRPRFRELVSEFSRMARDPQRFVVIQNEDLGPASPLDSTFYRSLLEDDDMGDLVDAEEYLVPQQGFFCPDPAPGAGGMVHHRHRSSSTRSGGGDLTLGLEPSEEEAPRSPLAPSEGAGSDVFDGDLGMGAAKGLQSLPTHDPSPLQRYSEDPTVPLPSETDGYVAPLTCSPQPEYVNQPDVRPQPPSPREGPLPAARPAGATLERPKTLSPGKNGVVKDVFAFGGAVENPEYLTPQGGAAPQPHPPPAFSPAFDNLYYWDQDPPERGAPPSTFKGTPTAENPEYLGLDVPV
Kind of assay: Detection of phosphorylated ERBB2 (pERBB2) by ELISA in BT-474 cells. The assay is classed as cell-based. The conditions noted are these: four hour incubation. An outline of the steps:
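BT-474 cells were treated with compounds (fourfold dilutions, 10 μM to 0.01 nM final) for 4 h at 37 °C, then lysed. pERBB2 in lysates was quantified by ELISA with an HRP anti-phosphotyrosine detection antibody and TMB read at 450 nm; % relative activity was normalized to no-cell and 0.1% DMSO controls.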

The target in assay [3] is T2, phosphorylated EGFR (pEGFR) (Homo sapiens, UniProt P00533).
T2 construct: performed to measure phosphorylated EGFR levels using A431 cells (10% FBS); endogenous in cells; host or cells: A431
T2 sequence (P00533 25-1210): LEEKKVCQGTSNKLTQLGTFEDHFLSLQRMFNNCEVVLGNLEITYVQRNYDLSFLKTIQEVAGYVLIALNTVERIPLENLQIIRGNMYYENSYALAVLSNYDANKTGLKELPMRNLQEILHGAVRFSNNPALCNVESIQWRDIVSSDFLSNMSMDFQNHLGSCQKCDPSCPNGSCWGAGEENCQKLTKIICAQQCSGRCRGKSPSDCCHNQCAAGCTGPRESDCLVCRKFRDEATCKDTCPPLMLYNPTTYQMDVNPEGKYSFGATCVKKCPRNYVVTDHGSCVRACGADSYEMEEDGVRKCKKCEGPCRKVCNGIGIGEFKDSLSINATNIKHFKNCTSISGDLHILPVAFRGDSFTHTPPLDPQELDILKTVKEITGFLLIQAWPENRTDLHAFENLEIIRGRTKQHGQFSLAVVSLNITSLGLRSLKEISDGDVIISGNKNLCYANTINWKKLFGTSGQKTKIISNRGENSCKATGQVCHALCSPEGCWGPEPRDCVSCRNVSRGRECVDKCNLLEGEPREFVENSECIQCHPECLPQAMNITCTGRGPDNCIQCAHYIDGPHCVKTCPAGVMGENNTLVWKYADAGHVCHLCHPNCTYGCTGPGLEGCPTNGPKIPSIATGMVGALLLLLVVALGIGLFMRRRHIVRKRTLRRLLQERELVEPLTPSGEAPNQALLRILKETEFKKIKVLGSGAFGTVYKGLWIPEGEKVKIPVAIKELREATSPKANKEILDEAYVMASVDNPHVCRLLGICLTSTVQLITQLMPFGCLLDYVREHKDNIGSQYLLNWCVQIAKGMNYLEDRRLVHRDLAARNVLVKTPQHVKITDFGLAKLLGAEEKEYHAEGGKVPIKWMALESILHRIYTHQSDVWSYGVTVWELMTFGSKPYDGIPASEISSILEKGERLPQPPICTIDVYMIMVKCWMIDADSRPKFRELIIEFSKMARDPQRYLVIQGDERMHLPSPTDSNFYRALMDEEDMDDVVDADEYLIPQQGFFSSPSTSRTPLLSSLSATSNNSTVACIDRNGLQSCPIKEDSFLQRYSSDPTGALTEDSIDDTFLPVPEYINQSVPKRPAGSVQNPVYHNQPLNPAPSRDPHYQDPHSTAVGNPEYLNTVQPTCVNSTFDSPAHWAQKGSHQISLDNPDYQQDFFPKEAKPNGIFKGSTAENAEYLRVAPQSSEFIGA
Kind of assay: Detection of phosphorylated EGFR (pEGFR) by AlphaLISA in EGF-stimulated A431 cells. The assay is classed as cell-based. The conditions noted are these: A431 cells (10% FBS), 4 hours incubation, EGF 30 ng/mL for 10 minutes. An outline of the steps:
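A431 cells in 10% FBS were preincubated with compound for 4 h at 37 °C, then stimulated with 30 ng/mL EGF for 10 min and lysed. pEGFR read by AlphaLISA. % inhibition normalised to DMSO and staurosporine controls; IC50 from four-parameter curve fit.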
Background: Alpha assays give light when donor and acceptor beads are brought close together.

Among the data in patent US20260078135A1, “POLYCYCLIC QUINAZOLINES FOR INHIBITION OF ERBB2” (Enliven Inc., priority 2022, published 2026) are GI50 and IC50 values, retold here.

The structures appear in SMILES notation. Where only a bound is given, the exact number is not on record here.

Chain of Ba/F3 ERBB2 YVMA (P04626 with tags, fused parts or gaps DUP772-775): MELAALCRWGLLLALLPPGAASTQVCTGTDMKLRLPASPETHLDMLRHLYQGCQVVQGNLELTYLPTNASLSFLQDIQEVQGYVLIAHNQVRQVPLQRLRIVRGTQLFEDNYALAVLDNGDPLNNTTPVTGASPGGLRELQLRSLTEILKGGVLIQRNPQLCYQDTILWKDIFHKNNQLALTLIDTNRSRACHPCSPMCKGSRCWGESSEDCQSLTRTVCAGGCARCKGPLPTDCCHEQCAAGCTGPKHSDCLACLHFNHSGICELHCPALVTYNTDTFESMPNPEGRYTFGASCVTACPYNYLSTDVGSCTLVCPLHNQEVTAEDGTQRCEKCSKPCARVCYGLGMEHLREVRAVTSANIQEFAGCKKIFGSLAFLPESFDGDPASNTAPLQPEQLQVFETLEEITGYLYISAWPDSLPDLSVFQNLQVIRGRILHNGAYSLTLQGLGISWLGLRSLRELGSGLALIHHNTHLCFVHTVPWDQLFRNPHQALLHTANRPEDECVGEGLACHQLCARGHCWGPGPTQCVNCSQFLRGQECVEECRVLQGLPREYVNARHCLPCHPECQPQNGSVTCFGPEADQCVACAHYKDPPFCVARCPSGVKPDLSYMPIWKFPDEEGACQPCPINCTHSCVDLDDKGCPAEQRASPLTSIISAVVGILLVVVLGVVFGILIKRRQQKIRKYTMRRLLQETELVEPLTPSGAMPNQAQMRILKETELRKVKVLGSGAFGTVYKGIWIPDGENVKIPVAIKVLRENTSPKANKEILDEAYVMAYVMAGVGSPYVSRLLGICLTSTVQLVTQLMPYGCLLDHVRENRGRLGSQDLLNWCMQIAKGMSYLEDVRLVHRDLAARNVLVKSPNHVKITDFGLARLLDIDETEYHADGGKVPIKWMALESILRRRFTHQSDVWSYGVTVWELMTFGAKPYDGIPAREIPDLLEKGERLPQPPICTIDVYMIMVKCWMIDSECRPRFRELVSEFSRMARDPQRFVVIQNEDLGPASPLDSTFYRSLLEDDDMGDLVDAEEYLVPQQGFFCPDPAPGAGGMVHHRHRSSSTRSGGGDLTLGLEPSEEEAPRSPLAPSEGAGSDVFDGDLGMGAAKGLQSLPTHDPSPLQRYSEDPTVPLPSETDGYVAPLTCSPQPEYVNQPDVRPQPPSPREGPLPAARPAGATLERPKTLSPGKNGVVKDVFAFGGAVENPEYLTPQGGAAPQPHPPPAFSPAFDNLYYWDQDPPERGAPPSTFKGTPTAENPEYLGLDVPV

Regarding `Cc1cc(Nc2ncnc3ccc4c(c23)OC[C@H]2CN4CCN2C(=O)/C=C/[C@H](C)N(C)C)c(F)cc1Oc1ccn2ncnc2c1` [Compound 91, (4S,E)-1-((3R)-13-((4-([1,2,4]triazolo[1,5-a]pyridin-7-yloxy)-2-fluoro-5-methylphenyl)amino)-2,3,5,6-tetrahydro-4H-3,7-methano[1,4,7]oxadiazonino[2,3-f]quinazolin-4-yl)-4-(dimethylamino)pent-2-en-1-one triformate], in assay [1], the GI50 came out at 164 nM. Also, the IC50 (usually the concentration needed to halve the response being measured) in assay [2] is 147 nM; in assay [3], over 10000 nM.
Turning to `Cc1cc(Nc2ncnc3ccc4c(c23)OC[C@@H]2CN(C(=O)/C=C/CN(C)C)CCN42)c(F)cc1Oc1ccn2ncnc2c1` [Compound 92, (S,E)-1-(4-((4-([1,2,4]triazolo[1,5-a]pyridin-7-yloxy)-2-fluoro-5-methylphenyl)amino)-6a,7,9,10-tetrahydropyrazino[1′,2′:4,5][1,4]oxazino[2,3-f]quinazolin-8(6H)-yl)-4-(dimethylamino)but-2-en-1-one], the GI50 in assay [1] is 18 nM. Moreover, the IC50 in assay [2] is 20.8 nM; in assay [3], 2160 nM.
In the same order, the values of `Cc1c(Oc2ccn3ncnc3c2)ccc(Nc2ncnc3ccc4c(c23)OC[C@@H]2CN(C(=O)/C=C/CN(C)C)CCN42)c1F` [Compound 93, (S,E)-1-(4-((4-([1,2,4]triazolo[1,5-a]pyridin-7-yloxy)-2-fluoro-3-methylphenyl)amino)-6a,7,9,10-tetrahydropyrazino[1′,2′:4,5][1,4]oxazino[2,3-f]quinazolin-8(6H)-yl)-4-(dimethylamino)but-2-en-1-one] are 7.75 nM, 18.1 nM and 308 nM.
In the case of `CN(C)C/C=C/C(=O)N1CCN2c3ccc4ncnc(Nc5ccc(Oc6ccn7ncnc7c6)c(F)c5)c4c3OC[C@@H]2C1` [Compound 94, (S,E)-1-(4-((4-([1,2,4]triazolo[1,5-a]pyridin-7-yloxy)-3-fluorophenyl)amino)-6a,7,9,10-tetrahydropyrazino[1′,2′:4,5][1,4]oxazino[2,3-f]quinazolin-8(6H)-yl)-4-(dimethylamino)but-2-en-1-one], in assay [1], the GI50 was 19.9 nM. Also, the IC50 in assay [2] was found to be 19.6 nM; in assay [3] it was 2160 nM.
For the molecule `CN(C)C/C=C/C(=O)N1CCN2c3ccc4ncnc(Nc5ccc(Oc6ccn7ncnc7c6)cc5F)c4c3OC[C@@H]2C1` [Compound 95, (S,E)-1-(4-((4-([1,2,4]triazolo[1,5-a]pyridin-7-yloxy)-2-fluorophenyl)amino)-6a,7,9,10-tetrahydropyrazino[1′,2′:4,5][1,4]oxazino[2,3-f]quinazolin-8(6H)-yl)-4-(dimethylamino)but-2-en-1-one], the GI50 in assay [1] worked out at 19.6 nM. The IC50 was found to be 32.3 nM in assay [2] and 2780 nM in assay [3].
Take `CN(C)C/C=C/C(=O)N1CCN2C[C@@H]1COc1c2ccc2ncnc(Nc3cc(F)c(Oc4ccn5ncnc5c4)cc3F)c12` [Compound 96, (E)-1-((3R)-13-((4-([1,2,4]triazolo[1,5-a]pyridin-7-yloxy)-2,5-difluorophenyl)amino)-2,3,5,6-tetrahydro-4H-3,7-methano[1,4,7]oxadiazonino[2,3-f]quinazolin-4-yl)-4-(dimethylamino)but-2-en-1-one]: in assay [1], the GI50 stood at 9.12 nM. For the same molecule, the IC50 in assay [2] was 19.1 nM; in assay [3], 221 nM.
Regarding `CN(C)C/C=C/C(=O)N1CCN2c3ccc4ncnc(Nc5cc(F)c(Oc6ccn7ncnc7c6)cc5F)c4c3OC[C@H]2C1` [Compound 97, (R,E)-1-(4-((4-([1,2,4]triazolo[1,5-a]pyridin-7-yloxy)-2,5-difluorophenyl)amino)-6a,7,9,10-tetrahydropyrazino[1′,2′:4,5][1,4]oxazino[2,3-f]quinazolin-8(6H)-yl)-4-(dimethylamino)but-2-en-1-one], the GI50 in assay [1] is 3.6 nM. Besides, the results for the IC50 in assay [2] and in assay [3] were 15.2 nM and 8060 nM, respectively.
As to `CN(C)C/C=C/C(=O)N1CCN2c3ccc4ncnc(Nc5cc(F)c(Oc6ccn7ncnc7c6)cc5F)c4c3OC[C@@H]2C1` [Compound 98, (S,E)-1-(4-((4-([1,2,4]triazolo[1,5-a]pyridin-7-yloxy)-2,5-difluorophenyl)amino)-6a,7,9,10-tetrahydropyrazino[1′,2′:4,5][1,4]oxazino[2,3-f]quinazolin-8(6H)-yl)-4-(dimethylamino)but-2-en-1-one], the GI50 in assay [1] is 16.6 nM. In addition, the IC50 is 60 nM in assay [2] and over 10000 nM in assay [3].
Take `Cc1cc(Nc2ncnc3cnc4c(c23)OC[C@@H]2CN(C(=O)/C=C/CN(C)C)CCN42)ccc1Oc1ccn2ncnc2c1` [Compound 112, (S,E)-1-(4-((4-([1,2,4]triazolo[1,5-a]pyridin-7-yloxy)-3-methylphenyl)amino)-6a,7,9,10-tetrahydropyrazino[1,2-d]pyrimido[5′,4′:4,5]pyrido[3,2-b][1,4]oxazin-8(6H)-yl)-4-(dimethylamino)but-2-en-1-one]: the GI50 in assay [1] is 13.3 nM. For the same molecule, the IC50 in assay [2] was found to be 21.8 nM; in assay [3], 1170 nM.
Turning to `Cc1cc(Nc2ncnc3cnc4c(c23)OC[C@H]2CN(C(=O)/C=C/CN(C)C)CCN42)ccc1Oc1ccn2ncnc2c1` [Compound 113, (R,E)-1-(4-((4-([1,2,4]triazolo[1,5-a]pyridin-7-yloxy)-3-methylphenyl)amino)-6a,7,9,10-tetrahydropyrazino[1,2-d]pyrimido[5′,4′:4,5]pyrido[3,2-b][1,4]oxazin-8(6H)-yl)-4-(dimethylamino)but-2-en-1-one], the GI50 in assay [1] was 3.57 nM. Moreover, the IC50 was 11.3 nM in assay [2] and 593 nM in assay [3].
`Cc1cc(Nc2ncnc3ccc4c(c23)OC[C@@H]2CN(C(=O)/C=C/C3CN(C)C3)CCN42)ccc1Oc1ccn2ncnc2c1` [Compound 114, (S,E)-1-(4-((4-([1,2,4]triazolo[1,5-a]pyridin-7-yloxy)-3-methylphenyl)amino)-6a,7,9,10-tetrahydropyrazino[1′,2′:4,5][1,4]oxazino[2,3-f]quinazolin-8(6H)-yl)-3-(1-methylazetidin-3-yl)prop-2-en-1-one formic acid]: the GI50 in assay [1] was found to be 172 nM. The IC50 was 43.1 nM in assay [2] and over 10000 nM in assay [3].
The corresponding values for `CN(C)C/C=C/C(=O)N1CCN2c3ncc4ncnc(Nc5cc(F)c(Oc6ccn7ncnc7c6)cc5F)c4c3OC[C@H]2C1` [Compound 115, (R,E)-1-(4-((4-([1,2,4]triazolo[1,5-a]pyridin-7-yloxy)-2,5-difluorophenyl)amino)-6a,7,9,10-tetrahydropyrazino[1,2-d]pyrimido[5′,4′:4,5]pyrido[3,2-b][1,4]oxazin-8(6H)-yl)-4-(dimethylamino)but-2-en-1-one] are 7.22 nM, 30.2 nM and 4770 nM.
As to `Cc1cc(Nc2ncnc3ccc4c(c23)OC[C@H]2CN(C(=O)/C=C/CN(C)C)CCN42)c(F)cc1Oc1ccn2ncnc2c1` [Compound 116, (R,E)-1-(4-((4-([1,2,4]triazolo[1,5-a]pyridin-7-yloxy)-2-fluoro-5-methylphenyl)amino)-6a,7,9,10-tetrahydropyrazino[1′,2′:4,5][1,4]oxazino[2,3-f]quinazolin-8(6H)-yl)-4-(dimethylamino)but-2-en-1-one], in assay [1], the GI50 is 14 nM. The IC50 in assay [2] was found to be 10.9 nM; in assay [3], 572 nM.
